The term IC50 denotes the concentration needed to halve the response being measured. Low values mean inhibition by little substance, high ones a need for much substance. In general, Ki refers to the dissociation constant of the complex between target and ligand, obtained from inhibition or displacement. Read a high Ki as lower affinity.

The target in assay [1] is T1, Prothrombin (Homo sapiens, UniProt P00734). Nature of the assay: Compound was evaluated for inhibition of human alpha-thrombin catalytic activity.
Assay [2] deals with T1, Prothrombin. Description: Compound was evaluated for inhibition of human alpha-thrombin catalytic activity.

At Prothrombin [1], `Cc1c(-c2ccccc2)[nH]c2ccc(C(=N)N)cc12` yielded an IC50 of 66 µM.

On to `N=C(N)c1ccc2[nH]c3c(c2c1)CCCC3`, for which, on Prothrombin [1], the IC50 came to 20 µM.

At Prothrombin [1], `N=C(N)c1ccc2[nH]c(-c3ccccc3)cc2c1` gave an IC50 of 19 µM.

For the molecule `N=C(N)c1ccc2[nH]c(Cc3ccccc3)cc2c1`, affinity on Prothrombin [2] was put at a Ki of 0.26 µM. This molecule also came in with an IC50 against Prothrombin [1] of 1.4 µM.

The molecule `N=C(N)c1ccc2[nH]c(C(Cc3ccccc3F)c3ccccc3F)cc2c1` (configuration not stated) had an IC50 against Prothrombin [1] of 15 µM.

As for `N=C(N)c1ccc2[nH]c(-c3ccccc3O)cc2c1`, 38 µM corresponded to half-maximal inhibition at Prothrombin [1] (IC50).

As to `N=C(N)c1ccc2[nH]c(Cc3cccc(Oc4ccccc4)c3)cc2c1`, the IC50 against Prothrombin [1] is 2 µM.

In the case of `NCc1ccc2[nH]c(C(Cc3ccccc3F)c3ccccc3F)cc2c1` (configuration not stated), it took 59 µM to reach half-maximal inhibition against Prothrombin [1] (IC50).

`N=C(N)c1ccc2[nH]c(Cc3cccc(CCc4ccccc4)c3)cc2c1` yielded an IC50 against Prothrombin [1] of 2.4 µM.

As to `N=C(N)c1ccc2[nH]c(Cc3ccccc3F)cc2c1`, on Prothrombin [1], it took 36 µM to reach half-maximal inhibition (IC50).

For `N=C(N)c1ccc2[nH]ccc2c1`, the IC50 at Prothrombin [1] stood at 22 µM.

The record behind these values is ChEMBL document CHEMBL1152106, “Derivatives of 5-amidine indole as inhibitors of thrombin catalytic activity” (Bioorg Med Chem Lett, 1996).
